The results in this text go back to ChEMBL document CHEMBL1127101, “Interaction of rigid polyamine analogues with the NMDA receptor complex from rat brain” (Bioorg Med Chem Lett, 1993).

Molecules are shown by their SMILES.

Assay [1] in a line: Tested for the increase in [Ca2+] produced by 30 uM of the compound. In kind it is functional.
Assay [2] deals with Glutamate NMDA receptor. The experiment in a line: Tested for the binding of [3H]dizocilpine to NMDA receptor in rat brain membranes in the presence of 500 uM spermidine. In kind it is cell membranes.
Assay [3] deals with Glutamate NMDA receptor. Kind of assay: Tested for the binding of [3H]dizocilpine to DEPC (diethylpyrocarbonate) membranes of rat.

In assay [1], `Cc1cc2nc3cc(C)c(N)cc3[n+](-c3ccccc3)c2cc1N` showed an Increase of 77.9%. Also, the concentration for half-maximal inhibition (IC50) came out at 2.21 µM in assay [2] and 3.95 µM in assay [3].
In assay [1], `CC[n+]1c(-c2ccccc2)c2cc(N)ccc2c2ccc(N)cc21` [HOMIDIUM BROMIDE] displayed an Increase of 84.7%. Also, the IC50 in assay [2] stood at 7.34 µM; in assay [3] it was 3.13 µM.
The molecule `Nc1ccc2nc3ccc(N)cc3[n+](-c3ccccc3)c2c1` [PHENOSAFRANINE] gave an Increase in assay [1] of 78.4%. Further, the half-inhibitory concentration (IC50) in assay [2] was determined as 4.33 µM; in assay [3], 2.7 µM.
The like results for `CC[N+](C)(CC)CCC[n+]1c(-c2ccccc2)c2cc(N)ccc2c2ccc(N)cc21` [PROPIDIUM] were, in that order, 97.6%, above 1000 µM and 6.8 µM.
